Measured values: ChEMBL document CHEMBL1126024, “Di- and triester prodrugs of the varicella-zoster antiviral agent 6-methoxypurine arabinoside” (J Med Chem, 1992)
≈ marks a conversion by molar mass, not a printed value.

Assays:
Rattus norvegicus [1] = organism: Rattus norvegicus; assay: (§1) Ester prodrugs: recovery of parent compound in rat urine; assay type: ADME, organism-based; conditions: in vivo
[2] = Solubility (phosphate buffered saline); assay type: physicochemical; conditions: read-out: S
Rattus norvegicus [3] = organism: Rattus norvegicus; assay: as §1; assay type: ADME, organism-based; conditions: in vivo; remark: listed apart in the source
[4] = Ester prodrugs: stability in buffer (pH 7); assay type: physicochemical

Row | SMILES | Urinary recovery (Rattus norvegicus [1]) | solubility [2] | Urinary recovery (Rattus norvegicus [3]) | T1/2 [4]
1 | CCCCCCCC(=O)O[C@H]1[C@H](OC(=O)CCCCCCC)[C@@H](CO)O[C@H]1n1cnc2c(OC)ncnc21 | 12.6% | 36 µM (≈ 19.2 µg/mL) | – | –
2 | COc1ncnc2c1ncn2[C@@H]1O[C@H](CO)[C@@H](O)[C@@H]1O | 3.8% | 49800 µM (≈ 14100 µg/mL) | 25.9% | –
3 | CCCCC(=O)OC[C@H]1O[C@@H](n2cnc3c(OC)ncnc32)[C@@H](OC(=O)CCCC)[C@@H]1O | 15.3% | 1300 µM (≈ 586 µg/mL) | – | 51.6 days
4 | COc1ncnc2c1ncn2[C@@H]1O[C@H](CO)[C@@H](OC(C)=O)[C@@H]1OC(C)=O | 19.2% | 172000 µM (≈ 63000 µg/mL) | – | 19.1 days
5 | COc1ncnc2c1ncn2[C@@H]1O[C@H](COC(=O)C(C)C)[C@@H](OC(=O)C(C)C)[C@@H]1OC(=O)C(C)C | 2.1% | 141 µM (≈ 69.4 µg/mL) | – | –
6 | COc1ncnc2c1ncn2[C@@H]1O[C@H](COC(C)=O)[C@@H](OC(C)=O)[C@@H]1O | 16.3% | 12300 µM (≈ 4510 µg/mL) | – | 30.6 days
7 | COc1ncnc2c1ncn2[C@@H]1O[C@H](COC(=O)C(C)(C)C)[C@@H](O)[C@@H]1OC(=O)C(C)(C)C | 15.7% | 1350 µM (≈ 608 µg/mL) | – | 178 days
8 | COc1ncnc2c1ncn2[C@@H]1O[C@H](CO)[C@@H](OC(=O)C(C)(C)C)[C@@H]1OC(=O)C(C)(C)C | 1.6% | 640 µM (≈ 288 µg/mL) | – | 72.7 days
9 | COc1ncnc2c1ncn2[C@@H]1O[C@H](COC(=O)COc2ccccc2)[C@@H](OC(=O)COc2ccccc2)[C@@H]1O | 3.8% | 58 µM (≈ 31.9 µg/mL) | – | –
10 | COc1ncnc2c1ncn2[C@@H]1O[C@H](CO)[C@@H](OC(=O)Cc2ccccc2)[C@@H]1OC(=O)Cc1ccccc1 | 2.7% | 204 µM (≈ 106 µg/mL) | – | –
11 | CCCCC(=O)OC[C@H]1O[C@@H](n2cnc3c(OC)ncnc32)[C@@H](O)[C@@H]1OC(=O)CCCC | 12.8% | 78 µM (≈ 35.1 µg/mL) | – | –
12 | CCCCCCC(=O)O[C@H]1[C@H](OC(=O)CCCCCC)[C@@H](CO)O[C@H]1n1cnc2c(OC)ncnc21 | 10.5% | 30 µM (≈ 15.2 µg/mL) | – | –
13 | COc1ncnc2c1ncn2[C@@H]1O[C@H](CO)[C@@H](OC(=O)COc2ccccc2)[C@@H]1OC(=O)COc1ccccc1 | 7.6% | 67 µM (≈ 36.9 µg/mL) | – | –
14 | COc1ncnc2c1ncn2[C@@H]1O[C@H](COC(=O)C(C)(C)C)[C@@H](OC(=O)C(C)(C)C)[C@@H]1O | 1.2% | 32 µM (≈ 14.4 µg/mL) | – | –
15 | CCCCC(=O)OC[C@H]1O[C@@H](n2cnc3c(OC)ncnc32)[C@@H](OC(=O)CCCC)[C@@H]1OC(=O)CCCC | 2.2% | 21 µM (≈ 11.2 µg/mL) | – | –
16 | COc1ncnc2c1ncn2[C@@H]1O[C@H](COC(=O)Cc2ccccc2)[C@@H](OC(=O)Cc2ccccc2)[C@@H]1O | 1.5% | < 5 µM | – | –
17 | COc1ncnc2c1ncn2[C@@H]1O[C@H](COC(=O)c2ccccc2)[C@@H](OC(=O)c2ccccc2)[C@@H]1OC(=O)c1ccccc1 | 0.9% | 8 µM (≈ 4.76 µg/mL) | – | –
18 | COc1ncnc2c1ncn2[C@@H]1O[C@H](COC(C)=O)[C@@H](O)[C@@H]1OC(C)=O | 10.6% | 7100 µM (≈ 2600 µg/mL) | – | 22.5 days
19 | COc1ncnc2c1ncn2[C@@H]1O[C@H](CO)[C@@H](OC(=O)C(C)C)[C@@H]1OC(=O)C(C)C | 2.3% | 3300 µM (≈ 1390 µg/mL) | – | 28.9 days
20 | COc1ncnc2c1ncn2[C@@H]1O[C@H](COC(=O)c2ccc(C)cc2)[C@@H](OC(=O)c2ccc(C)cc2)[C@@H]1OC(=O)c1ccc(C)cc1 | 5.6% | < 5 µM | – | –
21 | COc1ncnc2c1ncn2[C@@H]1O[C@H](COC(=O)Cc2ccccc2)[C@@H](OC(=O)Cc2ccccc2)[C@@H]1OC(=O)Cc1ccccc1 | 4.1% | < 5 µM | – | –
22 | COc1ncnc2c1ncn2[C@@H]1O[C@H](COS(=O)(=O)c2ccc(C)cc2)[C@@H](OS(=O)(=O)c2ccc(C)cc2)[C@@H]1OS(=O)(=O)c1ccc(C)cc1 | 3% | 5 µM (≈ 3.72 µg/mL) | – | –
23 | COc1ncnc2c1ncn2[C@@H]1O[C@H](COC(C)=O)[C@@H](OC(C)=O)[C@@H]1OC(C)=O | 8.3% | 81800 µM (≈ 33400 µg/mL) | – | 15.2 days

Row | SMILES | Urinary recovery (Rattus norvegicus [1]) | solubility [2] | Urinary recovery (Rattus norvegicus [3]) | T1/2 [4]
24 | CCCC(=O)OC[C@H]1O[C@@H](n2cnc3c(OC)ncnc32)[C@@H](OC(=O)CCC)[C@@H]1OC(=O)CCC | 0.7% | 102 µM (≈ 50.2 µg/mL) | – | –
25 | COc1ncnc2c1ncn2[C@@H]1O[C@H](COC(=O)COc2ccccc2)[C@@H](OC(=O)COc2ccccc2)[C@@H]1OC(=O)COc1ccccc1 | 4.6% | 22 µM (≈ 15.1 µg/mL) | – | –
26 | COc1ccc(C(=O)OC[C@H]2O[C@@H](n3cnc4c(OC)ncnc43)[C@@H](OC(=O)c3ccc(OC)cc3)[C@@H]2OC(=O)c2ccc(OC)cc2)cc1 | 4.1% | < 5 µM | – | –
27 | CCCC(=O)OC[C@H]1O[C@@H](n2cnc3c(OC)ncnc32)[C@@H](O)[C@@H]1OC(=O)CCC | 11.8% | 422 µM (≈ 178 µg/mL) | – | –
28 | CCCCC(=O)O[C@H]1[C@H](OC(=O)CCCC)[C@@H](CO)O[C@H]1n1cnc2c(OC)ncnc21 | 9.1% | 694 µM (≈ 313 µg/mL) | – | 7.02 days
29 | CCCCCC(=O)O[C@H]1[C@H](OC(=O)CCCCC)[C@@H](CO)O[C@H]1n1cnc2c(OC)ncnc21 | 4.8% | 140 µM (≈ 67 µg/mL) | – | –
30 | CCC(=O)OC[C@H]1O[C@@H](n2cnc3c(OC)ncnc32)[C@@H](O)[C@@H]1OC(=O)CC | 11% | 2390 µM (≈ 943 µg/mL) | – | 30.2 days
31 | COc1ncnc2c1ncn2[C@@H]1O[C@H](COC(=O)c2ccccc2)C(OC(=O)c2ccccc2)[C@@H]1O (single isomer, unassigned) | 4.3% | 33 µM (≈ 16.2 µg/mL) | – | –
32 | COc1ncnc2c1ncn2[C@@H]1O[C@H](COC(=O)C(C)C)[C@@H](O)[C@@H]1OC(=O)C(C)C | 4.2% | 9110 µM (≈ 3850 µg/mL) | – | 53.6 days
33 | COc1ccc(C(=O)OC[C@H]2O[C@@H](n3cnc4c(OC)ncnc43)[C@@H](O)C2OC(=O)c2ccc(OC)cc2)cc1 (single isomer, unassigned) | 0.2% | 45 µM (≈ 24.8 µg/mL) | – | –
34 | CCCC(=O)O[C@H]1[C@H](OC(=O)CCC)[C@@H](CO)O[C@H]1n1cnc2c(OC)ncnc21 | 4.8% | 9600 µM (≈ 4060 µg/mL) | – | 13.1 days
35 | COc1ncnc2c1ncn2[C@@H]1O[C@H](CO)[C@@H](OC(=O)c2ccccc2)[C@@H]1OC(=O)c1ccccc1 | 0.1% | 13 µM (≈ 6.38 µg/mL) | – | –
36 | COc1ncnc2c1ncn2[C@@H]1O[C@H](COC(=O)c2ccccc2)[C@@H](O)[C@@H]1OC(=O)c1ccccc1 | 5.8% | < 5 µM | – | –
37 | COc1ncnc2c1ncn2[C@@H]1O[C@H](COS(C)(=O)=O)[C@@H](OS(C)(=O)=O)[C@@H]1OS(C)(=O)=O | 4.4% | 3220 µM (≈ 1660 µg/mL) | – | > 70 days
38 | CCC(=O)OC[C@H]1O[C@@H](n2cnc3c(OC)ncnc32)[C@@H](OC(=O)CC)[C@@H]1OC(=O)CC | 0.8% | 3550 µM (≈ 1600 µg/mL) | – | 127 days
39 | COc1ncnc2c1ncn2[C@@H]1O[C@H](COC(=O)C(C)C)[C@@H](OC(=O)C(C)C)[C@@H]1O | 17.7% | 428 µM (≈ 181 µg/mL) | – | 19.5 days
40 | COc1ncnc2c1ncn2[C@@H]1O[C@H](COC(=O)C(C)(C)C)[C@@H](OC(=O)C(C)(C)C)[C@@H]1OC(=O)C(C)(C)C | 5.4% | 14 µM (≈ 7.48 µg/mL) | – | –
41 | COc1ncnc2c1ncn2[C@@H]1O[C@H](CO)[C@@H](OC(=O)c2ccc(C)cc2)[C@@H]1OC(=O)c1ccc(C)cc1 | 0.2% | 5 µM (≈ 2.59 µg/mL) | – | –
42 | COc1ccc(C(=O)OC[C@H]2O[C@@H](n3cnc4c(OC)ncnc43)[C@@H](OC(=O)c3ccc(OC)cc3)[C@@H]2O)cc1 | 0.2% | 6 µM (≈ 3.3 µg/mL) | – | –
43 | CCC(=O)O[C@H]1[C@H](OC(=O)CC)[C@@H](CO)O[C@H]1n1cnc2c(OC)ncnc21 | 8.7% | 23500 µM (≈ 9270 µg/mL) | – | 525 days
44 | COc1ncnc2c1ncn2[C@@H]1O[C@H](COC(=O)c2ccc(Cl)cc2)[C@@H](OC(=O)c2ccc(Cl)cc2)[C@@H]1OC(=O)c1ccc(Cl)cc1 | 4.5% | < 5 µM | – | –
45 | COc1ccc(C(=O)O[C@H]2[C@H](OC(=O)c3ccc(OC)cc3)[C@@H](CO)O[C@H]2n2cnc3c(OC)ncnc32)cc1 | 0.2% | 5 µM (≈ 2.75 µg/mL) | – | –
